From US6442423B1, “Device for iontophoretic administration of drugs” (Hadasit Medical Research Services & Development Limited, priority 1998, dated 2002)
Several values for one entry are separate records, joined by “and”; a condition that tells them apart may be missing. Equal entries are not always repeated.

Tests used:
[1] = iontophoresis, rabbit eyes; cited from earlier work
[2] = INT; cited from earlier work
[3] = tested on: experimentally induced keratitus; conditions: experimentally induced keratitus in the rabbit eye; cited from earlier work
[4] = Effect of current applied and duration of iontophoresis on drug cornea concentration (Experiment 6); type: in vivo, Albino rabbits; parameters: Gentimicin concentration in the cornea, Average: unit not given here
Source text: The purpose of this experiment was to determine the effect of the current applied and duration on the drug cornea concentration.

[5] = INT via the cornea, aphakic rabbit eye; cited from earlier work
[6] = monkey eye, cited from earlier work
[7] = Release of gentamicin into the rabbit eye using hydrogel-probe iontophoresis (Example 5)
Procedure: Thirty six healthy rabbits (age 2-3 months, weight 2000 grams) were used. The study conformed with the ARVO Resolution of the Use of Animals in Research. The animals were anesthetized with intramuscular injections of ketamin HCl […] (Park Davis, Morris Plains, N.J.) and xylazine […] (Mobay, Shawnee, Kans.). Iontophoresis was carried out as follows: the distal end of the hydrogel-probe placed in a device as shown in FIG. 2 (diameter of 3 mm and 2 mm thick) was gently applied to the cornea of the rabbit while the anode of the iontophoretic system is inserted into the other end of the device and the cathode is attached to the ear of the animal.
A single concentration of 10 mg/ml gentamicin in the hydrogel-probe (dd) was studied, using two time periods of iontophoresis: long periods (60 seconds) and short periods (10 seconds). Six groups of rabbits, 6 animals per group, were treated with one of the treatments described in the following Table 1.
In group 3, one drop of topical gentamicin (14 mg/ml) was instilled into the eye every 5 minutes for 1 hour. In groups 4 and 5, mock iontophoresis was performed by placing a device containing 10 mg/ml of gentamicin on the cornea for 60 and 10 seconds without switching on the electric current. In group 6 iontophoresis was applied for 2 minutes with the dd containing NaCl 0.9% (instead of gentamicin).
Ten minutes after completion of the iontophoresis, or the control drug delivery technique in each animal, the surface of the eye was washed with 5 ml of NaCl 0.9%. The animals were sacrificed after 15 minutes by injecting an overdose of sodium pentobarbital. The entire cornea was excised with corneal scissors and rinsed again with 5 ml of NaCl 0.9%. The cornea was weighed, minced with a blade and placed into microcentrifuge tubes. To each tube, 0.5 ml 0.01 M phosphate buffered saline (pH 7.2) was added. The tubes were incubated for 18 hours in a water bath heated to 37° C., shaking at 100 oscillations/min. Thereafter the tubes were centrifuged for 10 min. at 2000 rpm. From each tube 125 microliter of the supernatant were assayed for gentamicin concentration using Abbot TDx. The concentration of gentamicin in the cornea was calculated as described before^(5). Gentamicin concentrations are expressed in micrograms per gram of tissue or per milliliter of buffer. 3 way ANOVA test was used for statistical evaluation.

[8] = INT, drug incorporated in soft agar gel; cited from earlier work
[9] = Group 2: hydrogel probe 10 mg/ml gentamicin, 0.5 mA, 10 sec iontophoresis
[10] = Group 4: hydrogel probe 10 mg/ml gentamicin, 0.0 mA, 60 sec (mock iontophoresis)

Cc1nnc(SCC2=C(C(=O)O)N3C(=O)[C@@H](NC(=O)Cn4cnnn4)[C@H]3SC2)s1 [cefazoline]
concentrations in the vitreous [1]: high concentrations

CC(=O)N1CCN(c2ccc(OCC3COC(Cn4ccnc4)(c4ccc(Cl)cc4Cl)O3)cc2)CC1 (stereo not shown) [ketaconazole]
penetration into the animals' anterior chamber [2]: increased the penetration

CC1(C)S[C@@H]2[C@H](NC(=O)[C@H](C(=O)O)c3ccsc3)C(=O)N2[C@H]1C(=O)O [ticarcillin]
concentrations in the vitreous [1]: high concentrations

NC[C@H]1O[C@H](O[C@H]2[C@H](O)[C@@H](O[C@H]3O[C@H](CO)[C@@H](O)[C@H](N)[C@H]3O)[C@H](N)C[C@@H]2N)[C@H](N)C[C@@H]1O [tobramycin]
efficacy of INT versus topical administration [3]: more effective than topical administration

gentamicin
Gentimicin concentration in the cornea, Average ([4]; Group 1: hydrogel probe 10 mg/ml, 0.0 mA, 60 sec): 2.71 ± 2.0 | Gentimicin concentration in the cornea, Average ([4]; Group 2: hydrogel probe 10 mg/ml, 0.1 mA, 60 sec): 4.5 ± 3.5 | Gentimicin concentration in the cornea, Average ([4]; Group 3: hydrogel probe 10 mg/ml, 0.3 mA, 60 sec): 42.2 ± 27.1 | Gentimicin concentration in the cornea, Average ([4]; Group 4: hydrogel probe 10 mg/ml, 0.6 mA, 60 sec): 88.6 ± 38.6 | Gentimicin concentration in the cornea, Average ([4]; Group 5: hydrogel probe 10 mg/ml, 0.0 mA, 10 sec): 0.0 | Gentimicin concentration in the cornea, Average ([4]; Group 6: hydrogel probe 10 mg/ml, 0.1 mA, 10 sec): 4.0 ± 2.4 | Gentimicin concentration in the cornea, Average ([4]; Group 7: hydrogel probe 10 mg/ml, 0.3 mA, 10 sec): 10.2 ± 4.1 | Gentimicin concentration in the cornea, Average ([4]; Group 8: hydrogel probe 10 mg/ml, 0.6 mA, 10 sec): 22.0 ± 7.8 | Gentimicin concentration in the cornea, Average ([4]; Group 9: subconj. inj., 0.3% w/v, no current): 30 ± 18.6 | gentamicin concentrations in the intraocular fluid ([4]; Groups 3 and 4 (0.3 and 0.6 mA, 60 sec)): High gentamicin concentrations | increase in drug concentration as compared with SC injections ([4]; current of 0.6 mAmp): 3 times | increase in drug concentration over a non-current application (diffusion only) ([4]; current of 0.6 mAmp): about 30 times | levels of gentamicin in the vitreous [5]: high levels | concentrations in the vitreous [1]: high concentrations | concentrations of gentamicin in the vitreous ([6]; transscleral INT using solutions, for several hours): bactericidal concentrations | damage to the retina, repeated Electro Retino Graphia (ERG) tests ([6]; transscleral INT): did not show damage to the retina | Gentamicin concentration in cornea, Average ([7]; Group 1: hydrogel probe 10 mg/ml gentamicin, 0.5 mA, 60 sec iontophoresis): 33.1 ± 9.3 µg/g | Gentamicin concentration in cornea, Average [7, 9]: 6.5 ± 0.8 µg/g | Gentamicin concentration in cornea, single eyes (Eye No. 1-6) [7, 9]: 6.27 µg/g and 6.53 µg/g and 4.92 µg/g and 6.70 µg/g and 7.05 µg/g and 7.52 µg/g | Gentamicin concentration in cornea, Average ([7]; Group 3: eye drops, one drop every 5 minutes for 1 hour, no current): 2.1 ± 1.0 µg/g | Gentamicin concentration in cornea, Average [7, 10]: 2.6 ± 0.3 µg/g | Gentamicin concentration in cornea, single eyes (Eye No. 1-6) [7, 10]: 2.01 µg/g and 2.55 µg/g and 2.78 µg/g and 2.89 µg/g and 2.70 µg/g and 2.96 µg/g | Gentamicin concentration in cornea, Average ([7]; Group 5: hydrogel probe 10 mg/ml gentamicin, 0.0 mA, 10 sec (mock iontophoresis)): 1.1 ± 0.4 µg/g | concentrations transferred into the rabbit cornea [8]: marked concentrations
